# Counter-ions that a name gives are not always drawn.
# Test system: JAK1/JAK2 pathway
# Test: A549 epithelial line stimulated with IFNγ, ICAM-1 surface expression (FACS)
# Format: cell-based, human
# Conditions: A549 cells, IFNγ 75 ng/mL, 24 hours, ICAM-1 expression; read-out: Example 5 IC50
# From the text: The JAK activity of the compounds described herein may also be characterized by assaying the effect of compounds I and II described herein on A549 lung epithelial cells and U937 cells. A549 lung epithelial cells and U937 cells up-regulate ICAM-1 (CD54) surface expression in response to a variety of different stimuli. Therefore, using ICAM-1 expression as readout, test compound effects on different signaling pathways can be assessed in the same cell type. Stimulation with IL-1β through the IL-1β receptor activates the TRAF6/NFκB pathway resulting in up-regulation of ICAM-1. IFNγ induces ICAM-1 up-regulation through activation of the JAK1/JAK2 pathway. The up-regulation of ICAM-1 can be quantified by flow cytometry across a compound dose curve and EC50 values are calculated. […]
# A549 lung epithelial cells up-regulate ICAM-1 (CD54) surface expression in response to a variety of different stimuli. Therefore, using ICAM-1 expression as readout, compound effects on different signaling pathways can be assessed in the same cell type. […] In this example, the up-regulation of ICAM-1 by IFNγ was assessed. […]
# On day three, the cell media was removed and the cells were washed with 200 μL PBS (phosphate buffered saline). […] Cells were washed with ice cold FACS buffer (PBS+2% FBS) and surface ICAM-1 expression was analyzed by flow cytometry. […]
compound,measurement,value
"C#CCOc1ccc(Nc2nc(Nc3ccc(C)c(S(=O)(=O)NC(=O)CC)c3)ncc2F)cc1 [VI, 5-Fluoro-N2-[4-methyl-3-(N-propionylaminosulfonyl)phenyl]-N4-[4-(2-propynyloxy)phenyl]-2,4-pyrimidinediamine Arginine Salt]",IC50,4.97 µM

# From patent publication US8497279B2, “Treatment for discoid lupus” (Rigel Pharmaceuticals, Inc., priority 2011, dated 2013)
